Test results taken from patent US9968645B2, “Method for enhanced production of morinda metabolites” (priority 2014, dated 2018).

Tested on: DSS-induced ulcerative colitis in mouse
Assay: Acute mouse ulcerative colitis model, colitis induced by 4% dextran sulfate (DSS)
Type: in vivo
Conditions: Male BalbC mice, 20 mg/kg co-fed with 4% DSS for 7 days
Experimental: The therapeutic efficacy of the methanolic extracts of MO hairy roots was examined in an acute mouse ulcerative colitis model. The mouse ulcerative colitis model is used to predict ulcerative colitis and treatment of that disease in human subjects (e.g. Low et. al., 2013). Male BalbC mice in groups of 10 were housed in Good Animal Care Protocol conditions. Colitis was induced by 4% dextran sulfate (DSS). In a pilot dosing study (50 mg/kg, 150 mg/kg, and 450 mg/kg) of MO root extracts on UC, an unexpected finding was made. […] Subsequently the effect of drug treatment on colitis was investigated by co-feeding the mice extracts from MO native plants or hairy root culture at doses below 50 mg/kg along with 4% DSS for 7 days. 5-amino-salicylic acid (5-ASA) was used as a positive treatment control. Animals were weighed, and stool consistency was monitored daily to determine the disease activity index (DAD. All animals were anesthetized and the colons were separated from the proximal rectum, and the colon length was measured between the ileo-cecal junction and the proximal rectum. [table]

## Nc1ccc(O)c(C(=O)O)c1 [5-ASA, 5-amino-salicylic acid]
  DAI (disease activity index): 3.0 ± 2.22
  Length of colon: 6.77 ± 0.19 cm
Including disruption of colonic crypts and damaged glandular structures
  % of mice developing ulcer: 60%
